Among the test systems are A498 renal; HCT-15 colon; SN12C renal; OVCAR-3 ovarian; OVCAR-5 ovarian; SK-MEL-5 melanoma; U251 CNS; SF-268 CNS; SK-OV-3 ovarian; HOP-62 NSCLC.
What all share (assay): DTP human tumour cell line panel, 48 h

The structures appear in SMILES notation.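 In this assay, cells in 96-well plates receive the compound at five concentrations for 48 hours. Endpoints are linearly interpolated between the surrounding concentrations. GI50 = concentration required for 50% inhibition of growth. TGI is the concentration that stops growth completely.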 Where only a bound is given, the exact number is not on record here.

A word on the TGI: it is the concentration at which net growth stops. Low readings indicate greater sensitivity of the cells, high ones lower sensitivity of the cells. For `CCCNC1=C(C(=O)OCC)C(=O)CO1`, the concentration for total growth inhibition (TGI) with A498 renal, with HCT-15 colon, in the test with SN12C renal, in the test on OVCAR-3 ovarian, in the test with OVCAR-5 ovarian and in the test with SK-MEL-5 melanoma was greater than 100 µM throughout. The TGI in the test with U251 CNS and in the test with SF-268 CNS was greater than 100 µM each time.
With `CCCCCCCCCCC(C(=O)O)C1(C(=O)O)CCC(=O)O1` (stereo not given), the concentration for total growth inhibition (TGI) with SK-OV-3 ovarian, in the test on HOP-62 NSCLC, with HCT-15 colon, with SN12C renal, in the test on OVCAR-3 ovarian and in the test with OVCAR-5 ovarian was greater than 100 µM each time. In addition, the concentration for total growth inhibition (TGI) with U251 CNS and in the test with SF-268 CNS was greater than 100 µM throughout.
The term GI50 denotes the concentration giving 50% growth inhibition. Regarding `CCCCC(CC)CN=C(N)NC(N)=NCCCCCCN=C(N)NC(N)=NCC(CC)CCCC` (stereo not given), the GI50 in the test with SK-OV-3 ovarian was 2.64 µM; in the test on HCT-15 colon, 2.98 µM; with SN12C renal, 1.52 µM; in the test with SF-268 CNS it was 1.63 µM. Also, the TGI amounted to 6.86 µM in the test on SK-OV-3 ovarian, 16.5 µM in the test on HCT-15 colon, 4.39 µM with SN12C renal and 3.09 µM in the test with SF-268 CNS.
In the case of `Cc1ccc(C(=O)c2nnc(C(=O)c3ccc(C)cc3)nn2)cc1`, the TGI in the test with SK-OV-3 ovarian is 36.8 µM; in the test on HOP-62 NSCLC, greater than 100 µM; in the test with HCT-15 colon it was greater than 100 µM; with SN12C renal, greater than 100 µM; in the test with OVCAR-3 ovarian it was greater than 100 µM; with OVCAR-5 ovarian it was greater than 100 µM. The TGI in the test on SK-MEL-5 melanoma was greater than 100 µM; with U251 CNS it was greater than 100 µM; with SF-268 CNS it was 55.4 µM.
Consider `COc1ccc2sc3c(NCCCN(C)C)nc4ccccc4c3c(=O)c2c1`, for which the GI50 is 1.38 µM in the test on A498 renal; 1.6 µM in the test on HOP-62 NSCLC; 1.36 µM in the test on HCT-15 colon; 1.71 µM with SN12C renal; 1.78 µM with OVCAR-3 ovarian; 1.76 µM in the test on OVCAR-5 ovarian. For the same compound, the GI50 in the test with SK-MEL-5 melanoma was 1.73 µM; with U251 CNS, 1.53 µM; with SF-268 CNS, 1.67 µM. For the same compound, the total growth inhibition concentration (TGI) with A498 renal turned out to be 2.78 µM; in the test with HOP-62 NSCLC, 3.2 µM; with HCT-15 colon, 2.7 µM; in the test on SN12C renal, 3.2 µM; with OVCAR-3 ovarian, 3.27 µM; in the test with OVCAR-5 ovarian, 3.23 µM. The concentration for total growth inhibition (TGI) in the test with SK-MEL-5 melanoma amounted to 3.12 µM; with U251 CNS it was 3.27 µM; in the test with SF-268 CNS, 3.35 µM.
Turning to `CC(CCC(=O)O)[C@H]1CCC2[C@@H]3CC[C@@H]4CC(O)CC[C@]4(C)C3CC[C@@]21C` (stereo not given in full), the concentration for total growth inhibition (TGI) in the test with A498 renal, with HOP-62 NSCLC, in the test with HCT-15 colon, with SN12C renal, in the test with OVCAR-5 ovarian and in the test on U251 CNS was greater than 100 µM in each case. Besides, the TGI in the test on SF-268 CNS is greater than 100 µM. In addition, the GI50 was 37.2 µM in the test with HOP-62 NSCLC; 46.4 µM in the test with HCT-15 colon; greater than 100 µM in the test on SN12C renal; greater than 100 µM in the test with OVCAR-5 ovarian; 40.2 µM in the test with U251 CNS; greater than 100 µM in the test with SF-268 CNS.
Turning to `COc1cc2c(c(OC)c1)C1c3ccccc3NC(=O)N1CC2` (stereo not given), the GI50 in the test with SK-OV-3 ovarian is 3.67 µM; in the test on HOP-62 NSCLC, 3.28 µM; in the test with HCT-15 colon, 3.14 µM; in the test with SN12C renal it was 7.27 µM; in the test with OVCAR-3 ovarian, 3.27 µM; with OVCAR-5 ovarian, 4.96 µM. Also, the GI50 in the test on SK-MEL-5 melanoma is 4.01 µM; in the test with U251 CNS it was 4.38 µM; with SF-268 CNS, 7.02 µM. Further, the total growth inhibition concentration (TGI) with SK-OV-3 ovarian, with HOP-62 NSCLC, in the test on HCT-15 colon, in the test with SN12C renal, with OVCAR-3 ovarian and in the test on OVCAR-5 ovarian was greater than 100 µM in each case. Further, the total growth inhibition concentration (TGI) was 15.3 µM with SK-MEL-5 melanoma, greater than 100 µM in the test on U251 CNS and greater than 100 µM with SF-268 CNS.
On to `C=CCC[CH2][Sn]([c]1ccccc1)([c]1ccccc1)[c]1ccccc1`, for which the GI50 with SK-OV-3 ovarian was 1.89 µM; with HOP-62 NSCLC, 2.25 µM; in the test on HCT-15 colon, 1.52 µM; in the test on SN12C renal, 1.57 µM; in the test on OVCAR-3 ovarian it was 1.54 µM; in the test with OVCAR-5 ovarian, 1.12 µM. Moreover, the GI50 in the test on SK-MEL-5 melanoma is 1.65 µM; in the test with U251 CNS it was 1.65 µM; in the test with SF-268 CNS it was 1.26 µM. Further, the TGI in the test with SK-OV-3 ovarian is 3.57 µM; in the test on HOP-62 NSCLC, 3.99 µM; in the test with HCT-15 colon it was 3.07 µM; in the test on SN12C renal, 2.95 µM; in the test on OVCAR-3 ovarian, 2.91 µM; with OVCAR-5 ovarian it was 2.35 µM. For the same compound, the TGI turned out to be 3.02 µM in the test with SK-MEL-5 melanoma, 3.01 µM in the test on U251 CNS and 2.71 µM in the test with SF-268 CNS.
`COc1ccc2nc(-c3cccs3)cc(C(O)CN3CCSCC3)c2c1` (stereo not given): the TGI in the test on SK-OV-3 ovarian is greater than 100 µM; in the test with HOP-62 NSCLC, 65.8 µM; with HCT-15 colon it was 57.8 µM; in the test with SN12C renal it was 87.7 µM; in the test with OVCAR-3 ovarian, greater than 100 µM; in the test on OVCAR-5 ovarian, 59.8 µM. Further, the TGI in the test with SK-MEL-5 melanoma is 37.6 µM; in the test with U251 CNS, 50.2 µM; with SF-268 CNS it was greater than 100 µM.
As to `CC1=C(Oc2ccccc2)C(CCC(=O)O)c2c(O)cc(Cl)c(O)c21` (stereo not given), the TGI in the test with A498 renal, with HOP-62 NSCLC, in the test with HCT-15 colon, in the test on SN12C renal, in the test with OVCAR-3 ovarian and in the test on SK-MEL-5 melanoma was greater than 100 µM in each case. The TGI in the test on U251 CNS and in the test with SF-268 CNS was greater than 100 µM in each case.
Consider `Nc1ccccc1C#C/C=C\C#Cc1cccs1`, for which the GI50 was 26.5 µM in the test on SK-OV-3 ovarian; 11.2 µM in the test with HOP-62 NSCLC; 9.45 µM in the test on HCT-15 colon; 4.62 µM in the test on SN12C renal; 4.85 µM in the test with OVCAR-3 ovarian; 15.2 µM in the test on OVCAR-5 ovarian. Also, the GI50 with SK-MEL-5 melanoma was 4.36 µM; with U251 CNS, 8.34 µM; in the test with SF-268 CNS, 4.26 µM. In addition, the concentration for total growth inhibition (TGI) in the test on SK-OV-3 ovarian is greater than 52.3 µM; in the test with HOP-62 NSCLC, 33.2 µM; in the test on HCT-15 colon, 43.7 µM; in the test with SN12C renal, 16.7 µM; with OVCAR-3 ovarian, 24.8 µM; with OVCAR-5 ovarian it was 32.7 µM. The TGI in the test on SK-MEL-5 melanoma worked out at 17.6 µM; in the test on U251 CNS it was 27.5 µM; with SF-268 CNS, 34.9 µM.

(Values after PubChem BioAssay (NCI).)
